For test [1], the system named is NCI-N87 tumors (human gastric carcinoma cells). The test is described as follows: NCI-N87 gastric cancer xenograft model, first experiment (Example 3). The test is classed as in vivo, mice. As to the method: Cells are harvested with trypsin (0.25% w/v)-EDTA (0.53 mM), are re-suspended in culture medium (with additives) and are counted with a Casy® system. Cell culture reagents are purchased from BioConcept (Allschwil, Switzerland). NCI-N87 tumors are established by injecting […] to 1×10^7 cells (in HBSS containing 50% v/v Matrigel) subcutaneously with a 23 Gauge needle. When tumors are established and reach between 180 and 210 mm^3, animals are randomized into treatment groups and the treatments are initiated. Compound A is formulated in NMP/PEG300/Solutol HS15/water (10:30:20:40% vol/vol) The compound is fully dissolved in NMP first and water is added immediately prior to administration to animals. […] All doses of AUY922 refer to the free base equivalent. AUY922 is administered iv at a volume of 10 ml/kg, twice a week. […] Pairwise comparisons are done using a one way ANOVA followed by Tukey's test. The level of significance of body weight change within a group between start and end of the treatment period is determined using a paired t-test. […] Calculations are performed using GraphPad Prism 4 for windows (GraphPad Software Inc.). In addition, an approximation of drug interactions is made using the method described by Clarke R., “Issues in experimental design and endpoint analysis in the study of experimental cytotoxic agents in vivo in breast cancer and other models”, Breast Cancer Res. Treat, 46, 255-78 (1997). This is applied to MV (Tumor volume). Female athymic nude mice are treated orally once a day with 50 mg/kg Compound A, alone or in combination with 50 mg/kg of AUY922 administered intravenously twice a week. […] For compound A, B or the combination AB (with Vehicle Control group C), antagonism is predicted when the calculation AB/C>A/C×B/C, additive effect: AB/C=A/C×B/C, synergistic interactions are predicted to occur when AB/C<[…].

For test [2] the test system is unchanged. The test is described as follows: NCI-N87 gastric cancer xenograft model, second experiment (Example 3). It counts as in vivo, mice. The note with it: single agent. How it is done: Cells are harvested with trypsin (0.25% w/v)-EDTA (0.53 mM), are re-suspended in culture medium (with additives) and are counted with a Casy® system. Cell culture reagents are purchased from BioConcept (Allschwil, Switzerland). NCI-N87 tumors are established by injecting […] to 1×10^7 cells (in HBSS containing 50% v/v Matrigel) subcutaneously with a 23 Gauge needle. When tumors are established and reach between 180 and 210 mm^3, animals are randomized into treatment groups and the treatments are initiated. Compound A is formulated in NMP/PEG300/Solutol HS15/water (10:30:20:40% vol/vol) The compound is fully dissolved in NMP first and water is added immediately prior to administration to animals. […] All doses of AUY922 refer to the free base equivalent. AUY922 is administered iv at a volume of 10 ml/kg, twice a week. […] Pairwise comparisons are done using a one way ANOVA followed by Tukey's test. The level of significance of body weight change within a group between start and end of the treatment period is determined using a paired t-test. […] Calculations are performed using GraphPad Prism 4 for windows (GraphPad Software Inc.). In addition, an approximation of drug interactions is made using the method described by Clarke R., “Issues in experimental design and endpoint analysis in the study of experimental cytotoxic agents in vivo in breast cancer and other models”, Breast Cancer Res. Treat, 46, 255-78 (1997). This is applied to MV (Tumor volume).

One may read the T/C as the result in the treated group divided by that in the control group, in per cent.

SMILES strings stand for the structures.

Turning to `Cc1nc(NC(=O)N2CCC[C@H]2C(N)=O)sc1-c1ccnc(C(C)(C)C(F)(F)F)c1` [Compound A, (S)-Pyrrolidine-1,2-dicarboxylic acid 2-amide 1-({4-methyl-5-[2-(2,2,2-trifluoro-1,1-dimethyl-ethyl)-pyridin-4-yl]-thiazol-2-yl}-amide)], the T/C was determined as 4.2% in test [1] (Compound A 50 mg/kg orally once a day, single agent) and 30.3% in test [2] (Compound A 12.5 mg/kg orally once a day, not statistically significant). In addition, the “ΔTV Cmpd. A (A)” value in test [1] (Compound A 50 mg/kg orally once a day, change of tumor volume (mm^3)) was 1.4. Further, the A/C in test [1] (ΔTV of Compound A over vehicle control, Clarke method) stood at 0.006. The “mean change of tumor volume (mm^3±SEM)” value in test [2] (Compound A 12.5 mg/kg) is reported as 114.9±43.9 mm^3; in test [2] (Compound A 50 mg/kg), −2.3±15.2 mm^3. This molecule also displayed a regressions in test [2] (Compound A 50 mg/kg orally once a day) of 1.2%.

Values taken from US20160199365A1, “2-Carboxamide Cycloamino Urea Derivatives in Combination with HSP90 Inhibitors for the Treatment of Proliferative Diseases” (Novartis AG, priority 2011, published 2016).
